Earlier results, collected in patent US8337856B2, “Methods of treatment using anti-ERBB antibody-maytansinoid conjugates” (Immunogen, Inc., priority 2000, dated 2012).

Conditions: clinical trials discontinued

COc1cc2cc(c1Cl)N(C)C(=O)C[C@H](OC(=O)[C@H](C)N(C)C(C)=O)[C@]1(C)O[C@H]1[C@H](C)[C@@H]1C[C@@](O)(NC(=O)O1)[C@H](OC)/C=C/C=C(\C)C2 [maytansine, Maytansine]
adverse effects in clinical trials: serious adverse effects on the central nervous system and gastrointestinal system
